# Earlier results in patent US20250257354A1, “METHODS AND COMPOSITIONS RELATED TO TRNA THERAPEUTICS FOR TREATING VISION LOSS” (UNIVERSITY OF IOWA RESEARCH FOUNDATION, priority 2022, published 2025).
# Settings: ACT DMD Phase 3 NCT01826487; ACT CF NCT02139306
compound,measurement,value
O=C(O)c1cccc(-c2noc(-c3ccccc3F)n2)c1 [Ataluren],efficacy in patient populations,unexpectedly low efficacy
